# In patent publication US11518742B2 (priority 2020, dated 2022):
# Where two headings read alike, the source gives them in different places.
# Assays:
# [1] = Controlled cooling crystallisation: solubility in minimal solvent at 50 °C; type: physicochemical
# Procedure: (detailed in the Table below). The solutions were clarified through a 0.45 μm Teflon syringe filter into pre-heated crystallisation tubes and cooled from 50° C. to −10° C. over 60 hours (1° C. Hr-1 cooling rate) and held at −10° C. for 50 hours (no agitation).
# Solutions were clarified into crystallisation tubes at 50° C. and were cooled to −10° C. at a rate of 10° C.·hr-1, then equilibrated at −10° C. for 12 hours, then agitated at −10° C. at 400 rpm for 30 minutes which afforded a mobile suspension for all samples except Sample I which remained a solution. Further equilibration with agitation at −10° C. at 400 rpm for 3 hours afforded a thin suspension. All samples were isolated via isolute cartridge and air dried for 5 minutes before characterisation.
# [2] = Competitive equilibration of Pattern A, B and C forms in solvents; type: physicochemical; settings: suspension in 0.5 ml solvent agitated 24 hours; AB = Pattern A 15 mg + Pattern B 30 mg, AC = Pattern A 15 mg + Pattern C 30 mg; 1 IPA, 2 toluene, 3 iPrOAc, 4 MeCN, 5 MEK, 6 2-MeTHF
# Procedure: Solvent, 0.5 ml, was charged to crystallisation tubes as detailed in the Table below. Suspensions were agitated at 100 rpm at […] for 24 hours. Suspensions were isolated via isolute cartridge and air dried for 5 minutes and characterised by XRPD and DSC.
# [3] = system: Slugs (Arion lusitanicus); type: in vivo
# Description: The Slug Mucosal Irritation (SMI) assay was initially developed at the Laboratory of Pharmaceutical Technology (UGent) to predict the mucosal irritation potency of pharmaceutical formulations and ingredients. The test utilizes the terrestrial slug Arion lusitanicus. The body wall of the slugs is a mucosal surface composed of different layers.
# The outer single-layered columnar epithelium that contains cells with cilia, cells with micro-villi and mucus secreting cells covers the subepithelial connective tissue. Slugs that are placed on an irritating substance will produce mucus. Additionally tissue damage can be induced which results in the release of proteins and enzymes from the mucosal surface. […] A classification prediction model that distinguishes between irritation (mucus production) and tissue damage (release of proteins and enzymes) has been developed. […] A 5% shampoo dilution or artificial tears were instilled in the eye and the discomfort was scored by the participants on a 5 point scale during several time points up to 30 min after instillation. The same shampoos were tested in the SMI assay using the Stinging, Itching and Burning (SIB) protocol.
# The purpose of this assay was to assess the stinging, itching or burning potential of the test item(s) defined below. Using the objective values obtained for the mucus production the stinging, itching or burning potential of the test item(s) can be estimated by means of the prediction model that is composed of four categories (no, mild, moderate and severe).
# Test System: Slugs (Arion lusitanicus); 3 slugs per treatment group. The parental slugs of Arion lusitanicus collected in local gardens along Gent and Aalter (Belgium) are bred in the laboratory in an acclimatized room (18-20° C.). The slugs are housed in plastic containers and fed with lettuce, cucumber, carrots and commercial dog food.
# Test Design: A single study was performed.
# Slugs weighing between 3 and 6 g were isolated from the cultures two days before the start of an experiment. The body wall was inspected carefully for evidence of macroscopic injuries. […] The slugs were placed in a plastic box lined with paper towel moistened with PBS and were kept at 18-20° C. Daily the body wall of the slugs was wetted with 300 μl PBS using a micropipette.
# An overview of this can be seen in FIG. 4.
# The mucus production was expressed as % of the body weight.
# Based on the endpoint of the SMI assay the stinging, itching or burning potency of the test item(s) was estimated using a classification prediction model.
# The evaluation of the test results was based upon the total amount of mucus production during 3 repeated contact periods with the test item.
# For each slug, the mucus production was expressed in % of the body weight by dividing the weight of the mucus produced during each contact period by the body weight of the slug before the start of that contact period. The total mucus was calculated for each slug and then the mean per treatment group was calculated. The classification prediction model shown in Table 1 was used to classify the compounds.
# [4] = system: Slugs (Arion lusitanicus); assay: SMI assay, historical data (30-min / 60-min contact periods); type: in vivo; settings: for Total MP (% body weight): treatment time 60-min; for CP1 60-min, amount of mucus produced: Table 6; for CP1 60-min, amount of mucus produced / CP1 30-min, amount of mucus produced / CP2 30-min, amount of mucus produced / Day 1 CP1 60-min, amount of mucus produced / Day 2 CP2 60-min, amount of mucus produced / Total MP: historical data; for Ranking of salts by SIB reactions: comparison of 60-min historical data with SIB protocol data; for CP1 30-min, amount of mucus produced / CP2 30-min, amount of mucus produced: Table 4 (Code 00E04); for Day 1 CP1 60-min, amount of mucus produced / Day 2 CP2 60-min, amount of mucus produced: Table 5; for Day 1 CP1 60-min, amount of mucus produced: 1% in CP1; for Day 2 CP2 60-min, amount of mucus produced: 3.5% in CP2
# [5] = Concentration 10%, treatment time 45-min (3× 15-min)
# [6] = Table 2, stinging, itching and burning
# [7] = Table 3, stinging, itching and burning
molecule,measurement,setting,value
COc1ccc2[nH]cc(CCN(C)C)c2c1.O=C(O)c1ccccc1 [5MeODMT benzoate lot 20/20/150FP2],Solubility mg · ml^−1 at ° C.,"[1]; 2-Chlorotoluene, at 80 °C (suspension at 12.5 mg·ml-1 at 50 °C), cryst. tube K",12.5 at 80 mg · ml^−1
same,Solubility mg · ml^−1 at ° C.,"[1]; 4-Methyl-2-pentanone, at 50 °C, cryst. tube H, minimal solvent for clear solution",25 at 50 mg · ml^−1
same,Solubility mg · ml^−1 at ° C.,"[1]; Cumene, at 80 °C (suspension at 12.5 mg·ml-1 at 50 °C), cryst. tube I",12.5 at 80 mg · ml^−1
same,Solubility mg · ml^−1 at ° C.,"[1]; Ethyl formate, at 50 °C, cryst. tube E, minimal solvent for clear solution",40 at 50 mg · ml^−1
same,Solubility mg · ml^−1 at ° C.,"[1]; Iso-Butyl acetate, at 50 °C, cryst. tube D, minimal solvent for clear solution",12.5 at 50 mg · ml^−1
same,Solubility mg · ml^−1 at ° C.,"[1]; Iso-Propyl acetate, at 50 °C, cryst. tube C, minimal solvent for clear solution",16.7 at 50 mg · ml^−1
same,Solubility mg · ml^−1 at ° C.,"[1]; Methyl acetate, at 50 °C, cryst. tube A, minimal solvent for clear solution",33.3 at 50 mg · ml^−1
same,Solubility mg · ml^−1 at ° C.,"[1]; Methyl benzoate, at 50 °C, cryst. tube F, minimal solvent for clear solution",50 at 50 mg · ml^−1
same,Solubility mg · ml^−1 at ° C.,"[1]; Methyl propionate, at 50 °C, cryst. tube G, minimal solvent for clear solution",40 at 50 mg · ml^−1
same,Solubility mg · ml^−1 at ° C.,"[1]; Toluene, at 80 °C (suspension at 12.5 mg·ml-1 at 50 °C), cryst. tube J",12.5 at 80 mg · ml^−1
same,Solubility mg · ml^−1 at ° C.,"[1]; n-Propyl acetate, at 50 °C, cryst. tube B, minimal solvent for clear solution",20 at 50 mg · ml^−1
same,Solubility mg · ml^−1 at ° C.,"[1]; α,α,α-Trifluorotoluene, at 80 °C (suspension at 12.5 mg·ml-1 at 50 °C), cryst. tube L",12.5 at 80 mg · ml^−1
COc1ccc2[nH]cc(CCN(C)C)c2c1.O=C(O)c1ccccc1 [AB1],"Summary of solid form characterisation, DSC endotherm",[2],Endotherm at 124 °C
same,"Summary of solid form characterisation, XRPD",[2],Pattern A
COc1ccc2[nH]cc(CCN(C)C)c2c1.O=C(O)c1ccccc1 [AB2],"Summary of solid form characterisation, DSC endotherm",[2],Endotherm at 122 °C
same,"Summary of solid form characterisation, XRPD",[2],Pattern C
COc1ccc2[nH]cc(CCN(C)C)c2c1.O=C(O)c1ccccc1 [AB3],"Summary of solid form characterisation, XRPD",[2],Pattern A
COc1ccc2[nH]cc(CCN(C)C)c2c1.O=C(O)c1ccccc1 [AB4],"Summary of solid form characterisation, DSC endotherm",[2],Endotherm at 124 °C
same,"Summary of solid form characterisation, XRPD",[2],Pattern A
COc1ccc2[nH]cc(CCN(C)C)c2c1.O=C(O)c1ccccc1 [AB5],"Summary of solid form characterisation, DSC endotherm",[2],Endotherm at 124 °C
same,"Summary of solid form characterisation, XRPD",[2],Pattern A
COc1ccc2[nH]cc(CCN(C)C)c2c1.O=C(O)c1ccccc1 [AB6],"Summary of solid form characterisation, DSC endotherm",[2],Endotherm at 124 °C
same,"Summary of solid form characterisation, XRPD",[2],Pattern A
COc1ccc2[nH]cc(CCN(C)C)c2c1.O=C(O)c1ccccc1 [AC1],"Summary of solid form characterisation, DSC endotherm",[2],Endotherm at 124 °C
same,"Summary of solid form characterisation, XRPD",[2],Pattern A
COc1ccc2[nH]cc(CCN(C)C)c2c1.O=C(O)c1ccccc1 [AC2],"Summary of solid form characterisation, DSC endotherm",[2],Endotherm at 123 °C +
same,"Summary of solid form characterisation, XRPD",[2],Pattern C
COc1ccc2[nH]cc(CCN(C)C)c2c1.O=C(O)c1ccccc1 [AC4],"Summary of solid form characterisation, DSC endotherm",[2],Endotherm at 124 °C
same,"Summary of solid form characterisation, XRPD",[2],Pattern A
"O=C([O-])/C=C/C(=O)[O-].[Na+].[Na+] [Disodium fumarate, 10%, Disodium fumarate]",Total MP (% body weight),[3]; [5],13.3 % body weight
same,SIB Category,[3]; [6],Moderate (Moderate: 10% ≤ total MP < 17.5%)
same,SIB Category,[3]; [7],Moderate (Moderate: 10% ≤ total MP < 17.5%)
same,MP CP1 (%),"[3]; mucus produced, first 15-min contact period, mean ± SD, n = 3",5.0 ± 2.5%
"CC(=O)[O-].[Na+] [Sodium acetate, 10%, Sodium acetate]",SIB Category,[3]; in vivo,Moderate (key: No: total MP < 5.5%; Mild: 5.5% ≤ total MP < 10%; Moderate: 10% ≤ total MP < 17.5%; Severe: total MP ≥ 17.5%)
same,Total MP (% body weight),[3]; in vivo,11.0 % body weight
O=C([O-])c1ccccc1.[Na+] [Sodium benzoate],Total MP (% body weight),[4]; Concentration 1%,2.6 % body weight
same,Total MP (% body weight),[4]; Concentration 10%,6.9 % body weight
same,"CP1 60-min, amount of mucus produced",[4]; listed as Sodium benzoate (1%),2.6 ± 0.3
same,"CP1 60-min, amount of mucus produced",[4]; listed as Sodium benzoate (10%),6.9 ± 1.2
same,Ranking of salts by SIB reactions,[4],least irritating salt
"O=C([O-])CC(O)(CC(=O)[O-])C(=O)[O-].[Na+].[Na+].[Na+] [Sodium citrate, 10%, Sodium citrate]",Total MP (% body weight),[3]; [5],12.5 % body weight
same,SIB Category,[3]; [6],Moderate (Moderate: 10% ≤ total MP < 17.5%)
same,SIB Category,[3]; [7],Moderate (Moderate: 10% ≤ total MP < 17.5%)
O=C([O-])C(=O)[O-].[Na+].[Na+] [Sodium oxalate],Total MP (% body weight),[4]; Concentration 1%,11.2 % body weight
same,"CP1 30-min, amount of mucus produced",[4],4.5 ± 1.3
same,"CP2 30-min, amount of mucus produced",[4],6.6 ± 1.0
same,"Day 1 CP1 60-min, amount of mucus produced",[4],11.2 ± 3.9
same,"Day 2 CP2 60-min, amount of mucus produced",[4],16.0 ± 4.0
same,Ranking of salts by SIB reactions,[4],most irritating salt
"O=P([O-])(O)O.[Na+] [Sodium phosphate, 10% monobasic, Sodium phosphate monobasic]",Total MP (% body weight),[3]; [5],15.2 % body weight
same,SIB Category,[3]; [6],Moderate (Moderate: 10% ≤ total MP < 17.5%)
same,SIB Category,[3]; [7],Moderate (Moderate: 10% ≤ total MP < 17.5%)
Benzalkonium chloride [PC - 1% BAC],"CP1 30-min, amount of mucus produced",[4],13.2 ± 4.2
same,"CP2 30-min, amount of mucus produced",[4],18.6 ± 9.8
same,Total MP,"[4]; Table 4, 2 x 30-min contact periods",31.8 ± 12.6
same,Total MP,"[4]; Table 5, 2 x 60-min contact periods",31.6 ± 2.5
same,"Day 1 CP1 60-min, amount of mucus produced",[4],21.9 ± 4.8
same,"Day 2 CP2 60-min, amount of mucus produced",[4],9.7 ± 3.2
same,"CP1 60-min, amount of mucus produced",[4],15.0 ± 1.9
